Strand notation (5' to 3'): a small letter for the sugar, then the base; units joined by * are phosphorothioate-linked, units joined directly phosphodiester-linked; [ ] holds rarer units or linkages, { } end groups; capitals alone tell only the bases. k = constrained ethyl (cEt); [5mC] = 5-methylcytosine; d = 2'-deoxy (DNA)
What follows are substances tested on human SMAD7 mRNA (assay: Antisense inhibition of human SMAD7 mRNA expression in Hep3B cells by 3-10-3 cEt gapmers, 10,000 nM, electroporation (Example 2)). Conditions: Hep3B cells, 10,000 nM antisense oligonucleotide, electroporation, approximately 24 hours, RT-PCR primer probe set RTS5062, relative to untreated control cells.
Assay type: cell-based
Method in brief: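 Hep3B, 20,000 cells/well; electroporation, 10,000 nM ASO; ~24 h. Readout: SMAD7 mRNA by qRT-PCR (RTS5062), RIBOGREEN-normalised; % inhibition vs untreated.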
For “800096 (antisense kT*kG*kG*dA*dG*dT*dT*dA*d[5mC]*dA*dG*dA*dT*k[5mC]*kT*kT) [compound 800096]”, the “% Inhibition” value was 32%. “799957 (antisense kT*k[5mC]*kT*dG*dA*dG*dG*d[5mC]*dT*d[5mC]*d[5mC]*dT*dG*kG*kG*kT) [compound 799957]” was tested, and the “% Inhibition” value was 11%.

Same assay, conditions: Hep3B cells, electroporation with 10,000 nM antisense oligonucleotide, approximately 24 hours, RTS5062, percent inhibition of SMAD7 mRNA relative to untreated control cells
In the case of “799588 (kA*kA*kA*dA*dA*dG*d[5mC]*d[5mC]*d[5mC]*dA*d[5mC]*d[5mC]*d[5mC]*kA*kT*k[5mC]; antisense) [compound 799588]”, the “% Inhibition” value is reported as 44%. “799317 (antisense kT*kA*kA*dA*dA*dA*d[5mC]*dA*d[5mC]*d[5mC]*dA*dA*dG*kA*kT*k[5mC]) [compound 799317]” was tested, and the “% Inhibition” value was 0%.

Same assay, conditions: Hep3B cells, electroporation with 10,000 nM antisense oligonucleotide, approximately 24 hours, SMAD7 mRNA by RT-PCR (RTS5062), relative to untreated control cells
In the case of “830076 (k[5mC]*kA*k[5mC]*dA*dT*dT*d[5mC]*dA*dG*dG*dG*dT*dG*kT*k[5mC]*kA; antisense) [compound 830076]”, the “% Inhibition” value is reported as 43%. With “799450 (antisense kA*kA*kG*dA*dA*d[5mC]*dA*d[5mC]*dA*dG*d[5mC]*dA*d[5mC]*kT*kG*k[5mC]) [compound 799450]” the “% Inhibition” value was 53%. With “800104 (antisense kA*kG*kG*dA*d[5mC]*dG*dA*dG*dA*d[5mC]*dA*dG*dA*kA*kA*kG) [compound 800104]” the “% Inhibition” value was 17%. “798865 (kG*kG*kA*dG*dT*d[5mC]*d[5mC]*dG*dG*dG*dT*dT*dG*kT*k[5mC]*k[5mC]; antisense) [compound 798865]” was tested, and the “% Inhibition” value was 8%. “830203 (kG*k[5mC]*kT*d[5mC]*dT*dG*dA*dA*dG*dG*d[5mC]*dT*dA*k[5mC]*kA*k[5mC]; antisense) [compound 830203]” was tested, and the “% Inhibition” value was 40%. In the case of “798915 (kT*k[5mC]*kT*dG*dT*d[5mC]*d[5mC]*d[5mC]*d[5mC]*dT*d[5mC]*d[5mC]*dG*k[5mC]*kA*k[5mC]; antisense) [compound 798915]”, the “% Inhibition” value is reported as 7%. With “799903 (antisense kT*kG*k[5mC]*dA*dT*dG*dG*d[5mC]*dA*dT*dT*dG*dT*k[5mC]*kT*kG) [compound 799903]” the “% Inhibition” value was 34%. In the case of “798735 (antisense k[5mC]*k[5mC]*k[5mC]*d[5mC]*d[5mC]*dG*dG*d[5mC]*d[5mC]*dG*d[5mC]*dG*d[5mC]*k[5mC]*kG*kG) [compound 798735]”, the “% Inhibition” value is reported as 0%. In the case of “798770 (kA*kG*kG*dA*dA*dT*dG*d[5mC]*d[5mC]*dT*dG*dA*dG*kA*kT*k[5mC]; antisense) [compound 798770]”, the “% Inhibition” value is reported as 47%. With “798767 (kT*k[5mC]*k[5mC]*dG*dG*d[5mC]*d[5mC]*dA*d[5mC]*d[5mC]*dT*dG*dA*kA*k[5mC]*kA; antisense) [compound 798767]” the “% Inhibition” value was 0%. In the case of “799928 (antisense k[5mC]*kT*k[5mC]*d[5mC]*d[5mC]*dA*dA*dG*d[5mC]*d[5mC]*dT*dA*d[5mC]*kA*kT*kA) [compound 799928]”, the “% Inhibition” value is reported as 7%. “799414 (antisense k[5mC]*kA*kA*dA*dA*d[5mC]*d[5mC]*dA*dG*d[5mC]*d[5mC]*d[5mC]*d[5mC]*kA*kG*kA) [compound 799414]” was tested, and the “% Inhibition” value was 34%. In the case of “799490 (antisense kT*kT*kA*dA*dA*dT*dG*dG*dT*dG*dT*dA*dT*kA*k[5mC]*k[5mC]) [compound 799490]”, the “% Inhibition” value is reported as 0%. With “830124 (antisense k[5mC]*k[5mC]*kG*dA*dG*dG*d[5mC]*dA*d[5mC]*d[5mC]*dA*d[5mC]*dA*kT*kT*kT) [compound 830124]” the “% Inhibition” value was 27%. “798922 (kA*kA*kG*dT*dG*dT*dG*dG*d[5mC]*d[5mC]*dT*dG*d[5mC]*kT*k[5mC]*kA; antisense) [compound 798922]” was tested, and the “% Inhibition” value was 59%.

Same assay, conditions: Hep3B cells, electroporation with 10,000 nM antisense oligonucleotide, approximately 24 hours, primer probe set RTS5062, relative to untreated control cells
With “799222 (k[5mC]*kT*kT*dT*dT*dT*dT*dA*dA*dT*dT*dT*dG*kG*k[5mC]*kA; antisense) [compound 799222]” the “% Inhibition” value was 0%. “798958 (antisense kA*kA*k[5mC]*dA*dA*dT*dT*d[5mC]*dT*dT*dT*dT*d[5mC]*kA*kT*kA) [compound 798958]” was tested, and the “% Inhibition” value was 0%. In the case of “799129 (antisense k[5mC]*k[5mC]*kT*d[5mC]*d[5mC]*d[5mC]*dA*dG*dG*dG*dA*d[5mC]*dA*kT*k[5mC]*k[5mC]) [compound 799129]”, the “% inhibition of SMAD7 mRNA expression” value is reported as 37%. “799020 (kG*kA*k[5mC]*dT*dG*d[5mC]*dA*dA*dA*d[5mC]*d[5mC]*dT*d[5mC]*kT*k[5mC]*kT; antisense) [compound 799020]” was tested, and the “% Inhibition” value was 48%. With “799075 (antisense kA*kG*kA*dT*dG*dG*d[5mC]*d[5mC]*dA*dA*dA*dA*dA*kA*kG*kA) [compound 799075]” the “% Inhibition” value was 0%. With “799465 (antisense kA*kG*k[5mC]*dT*d[5mC]*dT*dA*dG*dG*d[5mC]*d[5mC]*dA*d[5mC]*kT*k[5mC]*k[5mC]) [compound 799465]” the “% inhibition of SMAD7 mRNA expression” value was 64%. “799059 (antisense kA*k[5mC]*kT*dA*dG*d[5mC]*dA*dG*dG*d[5mC]*dT*d[5mC]*dG*k[5mC]*kT*kG) [compound 799059]” was tested, and the “% Inhibition” value was 18%. “799101 (antisense kG*kG*kA*dA*dA*dA*dA*d[5mC]*d[5mC]*dT*dG*dA*dT*kG*kT*k[5mC]) [compound 799101]” was tested, and the “% Inhibition” value was 55%. “799218 (k[5mC]*kA*kT*dT*dT*dG*dT*dT*dA*dT*dT*dT*dG*k[5mC]*kA*kT; antisense) [compound 799218]” was tested, and the “% inhibition of SMAD7 mRNA expression” value was 0%. In the case of “798965 (antisense kT*kG*k[5mC]*d[5mC]*d[5mC]*d[5mC]*dT*dT*d[5mC]*dT*dT*d[5mC]*d[5mC]*kA*kA*kA) [compound 798965]”, the “% inhibition of SMAD7 mRNA expression” value is reported as 43%. With “799422 (antisense kG*kA*kT*dT*dT*dT*dA*dA*d[5mC]*dA*dG*dT*dT*kG*kT*k[5mC]) [compound 799422]” the “% inhibition of SMAD7 mRNA expression” value was 33%. In the case of “798692 (antisense kG*kG*kG*d[5mC]*dG*d[5mC]*dA*d[5mC]*dG*dG*d[5mC]*dT*d[5mC]*k[5mC]*kT*k[5mC]) [compound 798692]”, the “% inhibition of SMAD7 mRNA expression” value is reported as 48%. In the case of “772532 (antisense k[5mC]*kA*kG*d[5mC]*dA*dG*dG*d[5mC]*dG*d[5mC]*dA*dG*dG*k[5mC]*kG*kA) [compound 772532]”, the “% inhibition of SMAD7 mRNA expression” value is reported as 21%. For “799035 (k[5mC]*kG*k[5mC]*d[5mC]*dA*dG*d[5mC]*dT*dT*dG*d[5mC]*d[5mC]*d[5mC]*kA*kG*kG; antisense) [compound 799035]”, the “% Inhibition” value was 0%. With “799044 (k[5mC]*kA*kG*dA*dG*d[5mC]*d[5mC]*dG*dT*dG*d[5mC]*dT*d[5mC]*k[5mC]*kT*kG; antisense) [compound 799044]” the “% inhibition of SMAD7 mRNA expression” value was 0%. With “799176 (antisense kT*kG*kT*dT*dA*dA*dA*dG*dT*d[5mC]*dT*dA*dA*kA*k[5mC]*kA) [compound 799176]” the “% Inhibition” value was 0%.

Same assay, conditions: Hep3B cells, electroporation, 10,000 nM antisense oligonucleotide, approximately 24 hours, RTS5062, relative to untreated control cells
With “799716 (antisense kG*kG*k[5mC]*dT*dA*d[5mC]*d[5mC]*dA*dG*d[5mC]*d[5mC]*dT*dT*kG*k[5mC]*kT) [compound 799716]” the “% inhibition of SMAD7 mRNA expression” value was 32%. “799637 (kG*k[5mC]*kA*d[5mC]*dA*dG*dA*d[5mC]*dT*dG*d[5mC]*d[5mC]*dA*kA*kA*kT; antisense) [compound 799637]” was tested, and the “% inhibition of SMAD7 mRNA expression” value was 48%. With “799636 (k[5mC]*kA*k[5mC]*dA*dG*dA*d[5mC]*dT*dG*d[5mC]*d[5mC]*dA*dA*kA*kT*k[5mC]; antisense) [compound 799636]” the “% inhibition of SMAD7 mRNA expression” value was 55%. In the case of “799701 (antisense k[5mC]*kT*kA*d[5mC]*dA*dG*dT*dT*d[5mC]*d[5mC]*dA*dG*dA*kA*k[5mC]*kA) [compound 799701]”, the “% inhibition of SMAD7 mRNA expression” value is reported as 46%. For “772786 (kG*kA*k[5mC]*d[5mC]*dA*d[5mC]*dA*dG*d[5mC]*dA*d[5mC]*d[5mC]*dT*kT*kG*kT; antisense) [compound 772786]”, the “% inhibition of SMAD7 mRNA expression” value was 19%.

Same assay, conditions: SMAD7 mRNA, Hep3B cells, 10,000 nM antisense oligonucleotide, electroporation, approximately 24 hours, primer probe set RTS5062, relative to untreated control cells
For “800771 (antisense k[5mC]*k[5mC]*k[5mC]*dG*d[5mC]*dA*dG*d[5mC]*dT*d[5mC]*dG*d[5mC]*d[5mC]*kT*k[5mC]*k[5mC]) [compound 800771]”, the “% Inhibition” value was 46%. For “800787 (antisense k[5mC]*kA*kG*dT*dA*dG*dA*dG*d[5mC]*d[5mC]*dT*d[5mC]*d[5mC]*k[5mC]*k[5mC]*kA) [compound 800787]”, the “% Inhibition” value was 38%.

Same assay, conditions: SMAD7 mRNA, Hep3B cells, electroporation with 10,000 nM antisense oligonucleotide, approximately 24 hours, primer probe set RTS5062, relative to untreated control cells
In the case of “829922 (antisense kG*kT*kA*dT*d[5mC]*dA*dT*dA*d[5mC]*dG*dA*dG*dT*kG*kT*kA) [compound 829922]”, the “% Inhibition” value is reported as 56%. “829806 (kG*kA*k[5mC]*dT*d[5mC]*dT*dA*dG*dT*dT*d[5mC]*dG*d[5mC]*kA*kG*kA; antisense) [compound 829806]” was tested, and the “% Inhibition” value was 41%. For “829951 (kG*k[5mC]*kT*d[5mC]*d[5mC]*dG*dG*dG*d[5mC]*dA*dG*d[5mC]*d[5mC]*kA*kG*kT; antisense) [compound 829951]”, the “% Inhibition” value was 10%. “829957 (k[5mC]*kA*k[5mC]*d[5mC]*dT*dT*dG*dT*d[5mC]*dA*d[5mC]*d[5mC]*d[5mC]*kG*kT*k[5mC]; antisense) [compound 829957]” was tested, and the “% Inhibition” value was 41%. With “829857 (antisense kT*kG*k[5mC]*dA*d[5mC]*d[5mC]*dA*dG*d[5mC]*dT*dG*dA*d[5mC]*kT*k[5mC]*kT) [compound 829857]” the “% Inhibition” value was 31%. For “830007 (antisense k[5mC]*kT*kA*d[5mC]*dT*d[5mC]*dA*d[5mC]*d[5mC]*dA*dG*dT*dT*kG*kG*kT) [compound 830007]”, the “% Inhibition” value was 0%. In the case of “829841 (kT*kG*kG*dA*d[5mC]*dA*d[5mC]*dA*dG*dT*dA*dG*dA*kG*k[5mC]*k[5mC]; antisense) [compound 829841]”, the “% Inhibition” value is reported as 50%.

Reference: US10517889B2, “Modulators of SMAD7 expression” (Ionis Pharmaceuticals, Inc., priority 2017, dated 2019)
